Test [1] has as its target Galectin-3 (Homo sapiens) (UniProt P17931). Nature of the test: Binding affinity to recombinant human galectin-3 carbohydrate recognition domain expressed in Escherichia coli BL21 (DE3) cells assessed as gibbs free energy change by Nano-ITC analysis. Background: In ITC the heat of successive injections is recorded.
The target is the same in test [2]. In words: Binding affinity to recombinant human galectin-3 carbohydrate recognition domain expressed in Escherichia coli BL21 (DE3) cells assessed as change in enthalpy by Nano-ITC analysis.
Test [3] has the same target. Nature of the test: Binding affinity to recombinant human galectin-3 carbohydrate recognition domain expressed in Escherichia coli BL21 (DE3) cells assessed as change in entropy by Nano-ITC analysis.

The values below come from ChEMBL document CHEMBL5365454, “Strong Binding of C-Glycosylic1,2-Thiodisaccharides to Galectin-3─Enthalpy-Driven Affinity Enhancement by Water-Mediated Hydrogen Bonds” (J Med Chem, 2023).

Galectin-3 (Homo sapiens), sequence (P17931 whole entry, the tested form may be a part): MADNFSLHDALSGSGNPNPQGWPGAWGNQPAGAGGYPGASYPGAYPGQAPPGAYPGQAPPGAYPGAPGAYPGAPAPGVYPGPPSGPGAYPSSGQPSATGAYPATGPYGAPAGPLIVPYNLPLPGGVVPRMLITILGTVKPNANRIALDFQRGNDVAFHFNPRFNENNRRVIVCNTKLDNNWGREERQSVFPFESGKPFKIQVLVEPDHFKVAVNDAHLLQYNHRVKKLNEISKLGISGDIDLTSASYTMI

Take LACTOSE, ANHYDROUS: the deltaG in test [1] is -5.95 kcal/mol. In addition, the deltaH in test [2] was -5.47 kcal/mol. The -TdeltaS in test [3] was -0.485 kcal/mol.
For the compound `NC(=O)[C@@H]1O[C@H](CO)[C@@H](O)[C@H](O)[C@@H]1S[C@@H]1O[C@H](CO)[C@H](O)[C@H](O)[C@H]1O`, in test [2], the deltaH is -7.74 kcal/mol. Also, the -TdeltaS in test [3] came to 1.15 kcal/mol.
The corresponding values for `OC[C@H]1O[C@@H](S[C@@H]2CO[C@H](CO)[C@H](O)[C@@H]2O)[C@H](O)[C@@H](O)[C@H]1O` are -6.48 kcal/mol and 0.0956 kcal/mol.
Turning to `OC[C@H]1O[C@@H](S[C@@H]2O[C@H](CO)[C@H](O)[C@H](O)[C@H]2O)[C@H](O)[C@@H](O)[C@H]1O`, the deltaH in test [2] is -4.73 kcal/mol. Further, the -TdeltaS in test [3] was -1.21 kcal/mol.
The matching figures for `COC(=O)[C@@H]1O[C@H](CO)[C@H](O)[C@H](O)[C@@H]1S[C@@H]1O[C@H](CO)[C@H](O)[C@H](O)[C@H]1O`: -7.72 kcal/mol and 1.24 kcal/mol.
Take `NC(=O)[C@@H]1O[C@H](CO)[C@H](O)[C@H](O)[C@@H]1S[C@@H]1O[C@H](CO)[C@H](O)[C@H](O)[C@H]1O`: the -TdeltaS in test [3] turned out to be 0.0478 kcal/mol.
